According to publication PMC3154929, “Phosphatase-Coupled Universal Kinase Assay and Kinetics for First-Order-Rate Coupling Reaction” (PLoS ONE, 2011):

Biological target: T1, human glucokinase (GCK) (Homo sapiens, UniProt P35557)
T1 construct: V16 to Q465, N-terminal 6xHis tag, expressed in E. coli
T1 sequence (P35557 16-465): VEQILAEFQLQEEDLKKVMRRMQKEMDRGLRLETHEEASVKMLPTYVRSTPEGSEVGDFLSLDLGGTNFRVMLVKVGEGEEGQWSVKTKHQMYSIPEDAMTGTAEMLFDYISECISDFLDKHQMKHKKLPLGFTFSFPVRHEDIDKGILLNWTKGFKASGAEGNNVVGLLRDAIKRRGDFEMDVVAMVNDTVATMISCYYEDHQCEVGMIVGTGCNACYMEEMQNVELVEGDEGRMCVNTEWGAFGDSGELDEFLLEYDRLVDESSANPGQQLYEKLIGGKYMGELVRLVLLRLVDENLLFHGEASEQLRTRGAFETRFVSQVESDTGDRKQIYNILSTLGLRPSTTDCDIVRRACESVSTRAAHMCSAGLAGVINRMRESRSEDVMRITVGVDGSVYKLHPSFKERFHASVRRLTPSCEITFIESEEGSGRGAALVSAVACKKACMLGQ
Assay: CD39L2-coupled malachite green phosphate assay, OD620
Format: biochemical
Details: 0.12 mM ATP, 10 mM MgCl2, 10 mM CaCl2, 150 mM NaCl, 25 mM Tris pH 7.5, room temperature

Km: 7.23 ± 1.44 mM
SMILES: OC[C@H]1OC(O)[C@H](O)[C@@H](O)[C@@H]1O (stereo partly shown) [glucose]
